Measured values from patent US20210230131A1, “POLYAMINO BIARYL COMPOUNDS AND THEIR USE” (INSERM (INSTITUT NATIONAL DE LA SANTÉ ET DE LA RECHERCHE …, priority 2018, published 2021).

What was measured:
[1] = test system: CTFα; experiment: APP carboxy-terminal fragment αCTF by Western blot in SY5Y-APP695WT cells; type: cell-based, human; details: CTFα increase compared to chloroquine ([CTF]compound/[CTF]CQ) at 3 μM; mean of at least three experiments
Description: (§1) Antibodies. Primary antibodies used in this study for western-blot analysis included a homemade rabbit antiserum against the last 17 amino acids of human APP protein sequence, named APP-Cter-C17 (1/5000 in TBS-M). Anti-β-actin (1/10 000 in TBS-M) was obtained from Sigma. Anti-LC3B (1/2000 in TBS-BSA) and anti-p62/SQSTM1 (1/2000 in TBS-M) antibodies were purchased from Cell Signaling Technology. Secondary antibodies (peroxidase-labeled goat anti-rabbit IgG, 1/5000 or peroxidase-labeled horse anti-mouse IgG, 1/50000 in TBS-T) were obtained from Vector Laboratories.
(§2) Cell culture and treatment. The human neuroblastoma cell line SY5Y-APP^695WT was maintained in Dulbecco's modified Eagle medium (DMEM, high glucose, pyruvate—GIBCO by Life Technologies) supplemented with 10% foetal bovine serum, 2 mM L-glutamine, 1 mM non-essential amino acids and penicillin/streptomycin (GIBCO by Life Technologies) at 37° C. in a 5% CO2 humidified incubator. SY5Y-APP^695WT cells were maintained in 75 cm^2 culture flasks (Falcon) with supplemented DMEM medium until they reached 80% of confluence 24 h before treatment.
(§3) For drug treatment, cells were plated at a rate of 5·10^5 cells per well into 12-well plates (Falcon) and cultured with 1 mL supplemented DMEM cell medium for 24 h before drug exposure. The following day, cell medium was replaced with fresh medium containing drugs diluted at the indicated concentrations. Cells were treated for 24 h. At the end of treatments, the cell medium was collected and kept at −80° C. until use for dosage. Then, cells were rinsed once with PBS and extracted in 100 μL of Laemmli buffer (10 mM Tris, 20% glycerol and 2% Sodium dodecyl sulfate) using a cell-scraper. The cell lysate was further sonicated (30 pulses of 0.5 s, 60 Hz) for 5 min. Total protein concentration was determined using the Pierce BCA Protein Assay Kit (Thermo scientific) according to the manufacturer's instructions. Samples were stored at −80° C. until analysis.
(§4) Western Blot Analysis. Cell protein lysates were prepared for western-blot analysis by diluting the sample with 1 volume of NuPAGE® lithium dodecyl sulfate (LDS) 2× sample buffer supplemented with 20% NuPAGE® sample reducing agents (Invitrogen). Samples were heat 10 min at 100° C. 10 μg of total proteins per well were loaded onto a precast 4-12% Criterion XT Bis-Tris polyacrylamide gel (Bio-Rad) and electrophoresis was achieved after applying a tension of 150 V during 90 min using a Criterion electrophoresis Cell with the NuPAGE® MOPS SDS running buffer (1×). Proteins were transferred to a nitrocellulose membrane of […] pore size (G&E Healthcare) using the Criterion blotting system and applying a tension of 100 V for 45 min. To resolve proteins of low molecular weights such as carboxy-terminal fragments of APP, 12% Criterion XT Bis-Tris polyacrylamide gels (Bio-Rad) were used and electrophoresis was performed during 70 min at 150 V in a NuPAGE® MES SDS running buffer (1×). Proteins were transferred to a nitrocellulose membrane of 0.2 μm pore size (G&E Healthcare) at 100 V for 40 min. Molecular weights calibration was achieved using molecular weight markers (Novex and Magic Marks, Life Technologies). Protein transfer and quality were determined by a reversible Ponceau Red coloration (0.2% Xylidine Ponceau Red and 3% Trichloroacetic acid). Membranes were then blocked in 25 mM Tris-HCl pH 8.0, 150 mM NaCl, 0.1% Tween-20 (v/v) (TBS-T) and 5% (w/v) of skimmed milk (TBS-M) or 5% (w/v) of bovine serum albumin (TBS-BSA) depending on the antibody during 1 h. Membrane was rinsed three-times 10 min in TBS-T before incubation with the primary antibody overnight at 4° C. Membrane was rinsed 3 times 10 min with TBS-T and then incubated with the secondary antibody for 45 min at room temperature (RT). […] Quantifications of protein expression levels were performed with ImageJ Software (NIH). […]

[2] = test system: AICD; experiment: AICD by Western blot in SY5Y-APP695WT cells; type: cell-based, human; details: AICD increase compared to chloroquine ([AICD]compound/[AICD]CQ) at 3 μM; mean of at least three experiments
Description: as §1, §2, §3, §4

[3] = Stability of aqueous drinking solutions; type: physicochemical
Protocol: Thy-Tau22 transgenic colonies (C57Bl/6J genetic background) were obtained by crossing heterozygous males C57Bl/6J with WT females. All animals were housed in a pathogen-free facility at 5 to 6 animals per cage (Techniplast Cages 1284L), with ad libitum access to food and water in a 12/12-hour light-dark cycle and maintained under a constant temperature of 22° C. For treatment, animals were randomly distributed and compound 30 or 31 was provided in the drinking water at a final concentration of 1 mg/kg, ie […] for drinking solutions taking into account an average weight of 25 g/mouse drinking 4 mL/day. […] Food consumption and bodyweight were also assessed. In WT animals, a pilot study of drug treatment was performed for one month to establish the innocuousness of compound 30 and 31 treatments. Thy-Tau22 females were treated for 1 months, starting at 6 months of age.

SMILES	CTFα vs CQ (3 μM) [1]	AICD vs CQ (3 μM) [2]	stability of aqueous solutions [3]
CN(C)Cc1ccccc1-c1ccc(NCCCN2CCCCC2)c(OCCN2CCCCC2)c1 [Compound 30, 4-(2-[(Dimethylamino)methyl]phenyl)-2-[2-(piperidin-1-yl)ethoxy]-N-[3-(piperidin-1-yl)propyl]aniline]	6.4	3.6	stable during more than one week
CN(C)Cc1ccccc1-c1ccc(NCCCN2CCCCC2)c(OCCC2CCCCC2)c1 [Compound 31, 3-(2-cyclohexylethoxy)-2′-((dimethylamino)methyl)-N-(3-(piperidin-1-yl)propyl)-[1,1′-biphenyl]-4-amine]	0.1	0.1	stable during more than one week
